# Values of other authors as cited in patent publication US20080095814A1, “Compositions Having a High Antiviral and Antibacterial Efficacy” (THE DIAL CORPORATION, priority 2004, published 2008).
# System: rhinoviral infections
# Details: subjects who used iodine products
smiles,measurement,value
II [iodine],colds in users versus placebo users,significantly fewer colds than placebo users
